Data reported in US20230381774A1, “MICROFLUDIC LAB-ON-CHIP DEVICE, MATRIX, SMALL MOLECULES AND THREE-DIMENSIONAL SPHEROIDS FOR CELL REPROGRAMMING” (The Regents of the University of California, priority 2022, published 2023).
Entries after “also recorded” stand apart in the source; their conditions may differ.

Columns and labels:
Format in all cases: cell-based, mouse
[1] = test system: H3K4-specific histone demethylase (HDM); test: H3K4 HDM activity assay on nuclear extracts of treated fibroblasts; conditions: 10 μM blebbistatin or 5 μM PF573228, 2 hours, vs DMSO
Method: (§1) Nuclear protein extractions were isolated from 5×10^5 fibroblasts treated with vehicle control (DMSO), 10 μM blebbistatin or 5 μM PF573228 for 2 hours using a nuclear extraction kit (EpiGentek, OP-0002), in accordance with the manufacturer's instructions. HAT, HDAC, H3K4 HMT, H3K4 HDM and DNMT activity were measured using the HAT activity/inhibition assay (EpiGentek, P-4003-048), HDAC activity/inhibition assay (EpiGentek, P-4034-096), Histone methyltransferase (H3K4 specific) activity/inhibition assay (EpiGentek, P-3002-1), Histone Demethylase (H3K4 specific) activity/inhibition assay (EpiGentek, P-3074-48), and DNMT activity/inhibition assay (EpiGentek, P-3009-048), respectively. Per the manufacturer's instructions, 20 μg of nuclear extract was added into the assay wells and incubated at 37° C. for 90 minutes. After adding the color developer solution, the absorbance was measured using a plate reader (Infinite […], 30050303) at 450 nm for all the assays with the exception of the Histone Demethylase (H3K4 specific) activity/inhibition assay where we measured the fluorescence using a fluorescence microplate reader at 530 EX/590 EM nm.

[2] = test system: H3K4-specific histone methyltransferase (HMT); test: H3K4 HMT activity assay on nuclear extracts of treated fibroblasts; conditions: 10 μM blebbistatin or 5 μM PF573228, 2 hours, vs DMSO
Method: as §1

[3] = test system: histone acetyltransferase (HAT); test: HAT activity assay on nuclear extracts of treated fibroblasts; conditions: 10 μM blebbistatin or 5 μM PF573228, 2 hours, vs DMSO
Method: as §1

ERK = test: Downstream ERK signaling (Western blot)
Method: Fibroblasts were lysed and collected in Laemmli buffer ([…] Tris-HCl, 10% glycerol, 2% SDS, 5% 2-mercaptoethanol, 0.002% bromophenol blue) containing RIPA buffer (50 mM Tris-HCl, 150 mM NaCl, 1% Triton-X-100, 0.1% SDS, 10 mM NaF, 0.5% sodium deoxycholate) along with protease inhibitors (PMSF, Na3VO4 and Leupeptin) on ice. Protein lysates were centrifuged to pellet cell debris, and the supernatant was collected and used in further analysis. Protein samples were run using SDS-PAGE and transferred to polyvinylidene fluoride (PVDF) membranes. Membranes were blocked in 3% nonfat milk and incubated with primary antibodies overnight. Primary antibodies include pFAK, FAK, αSMA, Calponin, pERK, ERK, and GAPDH. Membranes were washed with Tris-Buffered Saline+0.05% Tween-20 and incubated with HRP-conjugated IgG secondary antibodies (Santa Cruz Biotechnologies) for one hour. Protein bands were visualized using Western Lightning™ Plus—Enhanced Chemiluminscence Substrate (Perkin Elmer Life & Analytical Sciences) and imaged on a ChemiDoc XRS system (Bio-Rad).

[4] = test system: histone deacetylase (HDAC); test: HDAC activity assay on nuclear extracts of treated fibroblasts; conditions: 10 μM blebbistatin or 5 μM PF573228, 2 hours, vs DMSO
Method: as §1

[5] = test system: BAM-transduced fibroblasts; test: iN reprogramming of BAM-transduced fibroblasts with cytoskeletal and adhesion inhibitors (TUBB3+ iN cells, 2 weeks); conditions: for dose response of reprogramming efficiency: varying concentrations
Method: To examine whether these changes in cell stiffness, actin structure and expression of contractility-mediating genes were involved in iN reprogramming, we evaluated the effects of disrupting the cytoskeleton using small molecule inhibitors. For these experiments, BAM-transduced fibroblasts were reprogrammed as in FIG. 1A and chemical compounds known to perturb the cytoskeleton were added to the culture medium on day 1 to evaluate their effects on the reprogramming process. […] The reprogramming efficiency was determined as the percentage of TUBB3*-iN cells normalized to the number of cells plated at 24 hours post-seeding (i.e., day 0). First, we tested whether disruption of cytoskeletal contractility could influence the direct reprogramming of fibroblasts into neurons using blebbistatin, a non-muscle myosin II inhibitor^22-24. We observed that iN cells could be derived in the absence and presence of blebbistatin (FIG. 3A). […] In particular, treatment with 10 μM blebbistatin generated the highest number of iN cells and increased the reprogramming efficiency by approximately 4.5-fold compared to the control, therefore, this concentration was used in all subsequent experiments. […] As Ascl1 has been identified as a pioneer factor for iN reprogramming and transduction of Ascl1 alone is sufficient to generate iN cells^25,26, we further investigated whether blebbistatin could influence iN conversion by Ascl1 induction.
(§2) After transduction, mouse fibroblasts were seeded onto multi-well tissue culture-treated polystyrene dishes (Falcon) coated with laminin (0.1 mg/ml, Corning) at 4,000 cells per cm^2. Twenty-four hours after seeding, the medium was replaced to MEF medium containing doxycycline (2 μg/ml, Sigma). The following day (i.e., day 1) the medium was changed to N3 medium (DMEM/F12 [GIBCO]+N2 supplement [Invitrogen]+B27 supplement [Invitrogen]+1% penicillin/streptomycin [Gibco]+ doxycycline [2 μg/ml, Sigma]) and the cultures were maintained in this medium for the duration of the experiments. For Ascl1-only reprogramming, N3 medium was further supplemented with BDNF (5 ng/ml, R&D systems) and GDNF (5 ng/ml, R&D systems) after day 7. For cytoskeletal and cell adhesion disruptions, Blebbistatin (Millipore), Y-27632 (20 μM; Cayman Chemical), Nocodazole (0.3 μM; Sigma), Cytochalasin D (1 μM; Sigma), Jasplakinolide (0.05 μM; Cayman Chemical) and PF573228 (Sigma) were administered in N3 medium on day 1 and for the first 7 days of reprogramming (unless stated otherwise) and used at the indicated concentrations. Culture medium was replenished every 2 days during reprogramming to maintain the activity of the small molecules. After culturing for the desired length (14 days for BAM and 21 days for Ascl1 only), the induced neuronal (iN) cells were analyzed and the reprogramming efficiency was determined.
The reprogramming efficiency was determined by as the percentage of TUBB3^+ iN cells in each condition normalized to the number of cells plated at 24 hours post-seeding. Epifluorescence images were collected using a Zeiss Axio Observer.D1, Zeiss Axio Observer.Z1, and ImageXpress Micro XLS System (Molecular Devices), whereas confocal images were acquired using a Zeiss LSM710 microscope and Leica SP8 Confocal Laser Scanning microscope.

neuronal genes = test: qRT-PCR of neuronal gene expression; conditions: for neuronal gene expression at day 5: blebbistatin or 5 μM PF573228, vs non-treated transduced cells
Method: RNA was isolated from samples using Trizol® (Ambion) according to the manufacturer's instructions. For cDNA synthesis, 500 ng of RNA was reverse transcribed using Maxima First Strand cDNA Synthesis Kit (ThermoFisher Scientific). Template DNA was amplified using Maxima SYBR Green/Fluorescein qPCR Master Mix (ThermoFisher Scientific) on a CFX qPCR machine (Bio-Rad). qRT-PCR data were analyzed using CFX Manager 3.1 (Bio-Rad) and gene expression levels were normalized to 18S.

[6] = test system: DNA methyltransferase (DNMT); test: DNMT activity assay on nuclear extracts of treated fibroblasts; conditions: 10 μM blebbistatin or 5 μM PF573228, 2 hours, vs DMSO
Method: as §1

[7] = test system: Ascl1-transduced fibroblasts; test: Single-factor (Ascl1-only) iN reprogramming; conditions: 10 μM, relative to control
Method: as §2, with “For cytoskeletal and cell adhesion disruptions, Blebbistatin (Millipore), Y-27632 (20 μM; Cayman Chemical), Nocodazole (0.3 μM; Sigma), Cytochalasin D (1 μM; Sigma), Jasplakinolide (0.05 μM; Cayman Chemical) and PF573228 (Sigma) were administered in N3 medium on day 1 and for the first 7 days of reprogramming (unless stated otherwise) and used at the indicated concentrations. Culture medium was replenished every 2 days during reprogramming to maintain the activity of the small molecules.” left out
The reprogramming efficiency was determined by as the percentage of TUBB3^+ iN cells in each condition normalized to the number of cells plated at 24 hours post-seeding. […]

H3K4-specific HDM activity [1] | H3K4-specific HMT activity [2] | HAT activity [3] | HDAC activity [4] | Structure (SMILES) | downstream ERK signaling (ERK) | dose response of reprogramming efficiency [5] | neuronal gene expression at day 5 (neuronal genes; BAM-transduced fibroblasts) | DNMT activity [6] | iN cell generation from Ascl1-transduced fibroblasts [7] | concentration generating the highest number of iN cells [5] [µM] | time course of TUBB3+ iN cell generation ([5]; as early as day 5) | phase of reprogramming in which treatment is effective ([5]; early days 1-5, mid days 5-9, late days 9-13, 10 μM) | reprogramming efficiency in Tau-EGFP fibroblasts ([5]; mouse fibroblasts isolated from Tau-EGFP mice) | length of treatment sufficient to enhance reprogramming efficiency ([5]; treatment over timescales of 1 to 14 days) [days] | endogenous Brn2 and Myt1l expression (neuronal genes; Ascl1-transduced fibroblasts) | expression of several neuronal genes including NeuroD1 (neuronal genes; Ascl1-transduced fibroblasts) | Ascl1 expression at day 3 (neuronal genes; BAM-transduced fibroblasts) | Brn2 and Myt1l expression at day 3 (neuronal genes; BAM-transduced fibroblasts)
differences | differences | differences | differences | CS(=O)(=O)c1cccc(CNc2nc(Nc3ccc4c(c3)CCC(=O)N4)ncc2C(F)(F)F)c1 [PF573228] | modulated downstream ERK signaling | significantly increased the reprogramming efficiency in a biphasic manner; also recorded: promoted iN reprogramming in a biphasic manner | greater | a reduction in 5-mC marks and DNMT activity | – | – | – | – | – | – | – | – | – | –
reduced | increased | increased | reducing | Cc1ccc2c(c1)C(=O)C1(O)CCN(c3ccccc3)C1=N2 (stereo not shown) [blebbistatin] | – | biphasic dose response | significantly increased | a decrease in DNA methyltransferase (DNMT) activity | could generate significantly more iN cells from Ascl1-transduced fibroblasts relative to control | 10 | led to more efficient generation of TUBB3^+ iN cells than the control | most crucial during the early phase of reprogramming | enhanced reprogramming efficiency by blebbistatin was also confirmed | 3 | upregulated the expression of endogenous Brn2 and Myt1l | higher | upregulated | did not show such a drastic increase in the expression level
